Results: patent US20220160669A1, “PARENTERAL NUTRITION FORMULATION” (BAXTER INTERNATIONAL INC., priority 2020, published 2022)

What was measured:
Type in all cases: in vivo, pig
[1] = system: pro-inflammatory cytokines I1-1β, I1-6, TNF-α; test: Ileal cytokine concentration, pro-inflammatory; set-up: key: +++ indicate P < 0.01; ++ indicates P < 0.05; + indicates positive trends; = denotes no significant P value; − denotes negative trends; conditions: compared to standard PN (s-PN)
From the text: (§1) Neonatal Yorkshire/Landrace cross bred piglets (n=72; six at a time from the same litter, repeating 12 times) were obtained from Oak Hill Genetics (Ewing, Ill.) after 48-hour sow reared for colostrum consumption and iron supplementation.
(§2) The influence of the respective supplements on inflammation was investigated by determining Il-6, Il-1beta, TNF-alpha and Il-10 serum levels in the intervention groups compared to EN and PN according to Milo et al., Effects of Short-Chain Fatty Acid-Supplemented Total Parenteral Nutrition on Intestinal Pro-Inflammatory Cytokine Abundance. Digestive Diseases and Sciences 2002; 47:2049-2055. Jejunal and ileal samples were homogenized in double-distilled water, and the Bradford protein assay (Biorad, Hercules, Calif., USA) was performed on homogenate and plasma samples. Protein (30 μg) from each sample was denatured by boiling, and proteins were separated by size using 12.5% sodium dodecyl sulfate polyacrylamide gel electrophoresis. Separated proteins were transferred to polyvinylidene difluoride membranes (Biorad) using a semidry transfer apparatus (Biorad). Western blot analysis for TNF-alpha, IL-1beta, Il-10 and IL-6 was performed using porcine-specific polyclonal antibodies (Endogen, Woburn, Mass., USA). A mouse anti-pig monoclonal TNF-alpha antibody was used to detect TNF-alpha ([…]). Rabbit anti-pig polyclonal antibodies specific for IL-1beta and IL-6 were used to detect IL-1beta (17,500 kDa), Il-10 (18,600 kDa) and IL-6 (26,000 kDa). Membranes were developed using the Opti-4CN kit (Biorad) and photographed using the FOTO/Analyst Image Analysis System (Fotodyne, Inc., Hartland, Wis., USA). Densitometry of TNF-alpha, IL-1beta, IL-6, and Il-10 was performed using Collage Image Analysis Software 4.0 (Fotodyne, Inc.). Results are shown in FIG. 15 (Il-6), FIG. 16 (Illbeta), FIG. 17 (TNF-alpha) and FIG. 18 (Il-10).

[2] = system: Neonatal Yorkshire/Landrace cross bred piglets; test: Intestinal histomorphology: villus height and crypt depth; set-up: key to Villus (total) / Crypt (total): + denotes a positive effect (compared to standard PN); ++ a very positive effect; − denotes no difference; key to Total villus height / Total crypt depth: +++ indicate P < 0.01; ++ indicates P < 0.05; + indicates positive trends; = denotes no significant P value; − denotes negative trends; conditions: for % Δ from PN, Total C (crypt depth) / % Δ from PN, Total V (villus height): sum over sections; for Crypt (total) / Villus (total): all sections, compared to standard PN; for Total crypt depth / Total villus height: compared to standard PN (s-PN)
Protocol: as §1
Formalin-fixed intestinal samples were embedded in paraffin, sliced to approximately 5-μm thickness with a microtome and stained with hematoxylin and eosin (FIG. 6). Villus height, midvillus width, and crypt depth were measured by using a Nikon Optiphot-2 microscope (Nikon, Melville, N.Y.) and ImagePro Express software (Version 4.5; Media Cybernetics, Inc, Silver Spring, Md.) in 8 to 10 well-oriented villi and crypts. Villus surface area (villus height×midvillus width) was also calculated. In addition, intestinal segment circumference was measured to estimate intestinal surface area. The results are provided in FIGS. 7 through 12 (see there for details). […] The Table summarizes the average difference (in % of each Intervention Group (A, B, C, D) versus the PN Group) of the villus height and the crypt depth in the different sections of the gut, i.e. duodenum, jejunum, ileum and colon. The Intervention Groups show an improved villus height compared to the s-PN Group.

[3] = system: anti-inflammatory cytokines I1-10; test: Jejunal cytokine concentration, anti-inflammatory; set-up: key: +++ indicate P < 0.01; ++ indicates P < 0.05; + indicates positive trends; = denotes no significant P value; − denotes negative trends; conditions: compared to standard PN (s-PN)
From the text: as §1, §2

[4] = system: pro-inflammatory cytokines I1-1β, I1-6, TNF-α; test: Jejunal cytokine concentration, pro-inflammatory; conditions: compared to standard PN (s-PN)
From the text: as §1, §2

[5] = system: Il-10; test: Serum cytokine quantification, Il-10
From the text: as §1, §2

[6] = system: anti-inflammatory cytokines I1-8, I1-10; test: Ileal cytokine concentration, anti-inflammatory; set-up: key: +++ indicate P < 0.01; ++ indicates P < 0.05; + indicates positive trends; = denotes no significant P value; − denotes negative trends; conditions: compared to standard PN (s-PN)
From the text: as §1, §2

[7] = system: Pro-inflammatory cytokines; test: Pro-inflammatory cytokines, summary (site not stated); set-up: key: + denotes a positive effect (compared to standard PN); ++ a very positive effect; − denotes no difference; conditions: compared to standard PN
From the text: as §1, §2

CCCC(=O)OCC(COC(=O)CCC)OC(=O)CCC [Tributyrin]
Ileal Cytokine Concentration (less pro-inflammatory cytokines I1-1β, I1-6, TNF-α) ([1]; 10 mmol/L): = | Ileal Cytokine Concentration (less pro-inflammatory cytokines I1-1β, I1-6, TNF-α) ([1]; 30 mmol/L): + | average duodenal crypt length (crypt depth, FIG. 8) ([2]; 10 mmol/L TPN): gave the best results | average duodenal villous length (FIG. 7) ([2]; 10 mmol/L TPN): only slightly below the mean values determined for Groups B and D | average ileal crypt depth (FIG. 11) ([2]; 10 mmol/L TPN): significant difference | average jejunal crypt depth (FIG. 10) ([2]; 10 mmol/L TPN): lower | % Δ from PN, Colon C (crypt depth) ([2]; 10 mmol/L TPN (Groups A, C, D)): +9% | % Δ from PN, Duodenum C (crypt depth) ([2]; 10 mmol/L TPN (Groups A, C, D)): +11% | % Δ from PN, Duodenum V (villus height) ([2]; 10 mmol/L TPN (Groups A, C, D)): +32% | % Δ from PN, Ileum C (crypt depth) ([2]; 10 mmol/L TPN (Groups A, C, D)): +17% | % Δ from PN, Ileum V (villus height) ([2]; 10 mmol/L TPN (Groups A, C, D)): +14% | % Δ from PN, Jejunum C (crypt depth) ([2]; 10 mmol/L TPN (Groups A, C, D)): −8% | % Δ from PN, Jejunum V (villus height) ([2]; 10 mmol/L TPN (Groups A, C, D)): +14% | % Δ from PN, Total Total (crypt + villus) ([2]; 10 mmol/L TPN (Groups A, C, D)): +89% | % Δ from PN, Total C (crypt depth) ([2]; 10 mmol/L TPN (Groups A, C, D)): +29% | % Δ from PN, Total V (villus height) ([2]; 10 mmol/L TPN (Groups A, C, D)): +60% | Crypt (total) ([2]; 10 mmol/L in PN): + | Villus (total) ([2]; 10 mmol/L in PN): + | Total crypt depth ([2]; 10 mmol/L): + | Total villus height ([2]; 10 mmol/L): + | average duodenal crypt length (crypt depth, FIG. 8) ([2]; 30 mmol/L TPN): better crypt depth than S-PN, but is not as good as Groups A, C and D | average duodenal villous length (FIG. 7) ([2]; 30 mmol/L TPN): increased villous length compared to the other study groups | % Δ from PN, Colon C (crypt depth) ([2]; 30 mmol/L TPN (Group B)): +10% | % Δ from PN, Duodenum C (crypt depth) ([2]; 30 mmol/L TPN (Group B)): +12% | % Δ from PN, Duodenum V (villus height) ([2]; 30 mmol/L TPN (Group B)): +12% | % Δ from PN, Ileum C (crypt depth) ([2]; 30 mmol/L TPN (Group B)): +27% | % Δ from PN, Ileum V (villus height) ([2]; 30 mmol/L TPN (Group B)): +31% | % Δ from PN, Jejunum C (crypt depth) ([2]; 30 mmol/L TPN (Group B)): −14% | % Δ from PN, Jejunum V (villus height) ([2]; 30 mmol/L TPN (Group B)): +5% | % Δ from PN, Total Total (crypt + villus) ([2]; 30 mmol/L TPN (Group B)): +111% | average jejunal crypt depth (FIG. 10) ([2]; 30 mmol/L TPN (Group B)): lower | % Δ from PN, Total C (crypt depth) ([2]; 30 mmol/L TPN (Group B)): +63% | % Δ from PN, Total V (villus height) ([2]; 30 mmol/L TPN (Group B)): +48% | Crypt (total) ([2]; 30 mmol/L in PN): ++ | Villus (total) ([2]; 30 mmol/L in PN): ++ | Total crypt depth ([2]; 30 mmol/L): + | Total villus height ([2]; 30 mmol/L): + | average jejunal villous length (FIG. 9) ([2]; Group B, printed in b62 as 10 mmol/L TPN): relatively low | Jejunal Cytokine Concentration (more anti-inflammatory cytokines I1-8, I1-10) ([3]; 10 mmol/L): = | Jejunal Cytokine Concentration (more anti-inflammatory cytokines I1-8, I1-10) ([3]; 30 mmol/L): + | Jejunal Cytokine Concentration (less pro-inflammatory cytokines I1-1β, I1-6, TNF-α) ([4]; 10 mmol/L): ++ (++ indicates P < 0.05) | Jejunal Cytokine Concentration (less pro-inflammatory cytokines I1-1β, I1-6, TNF-α) ([4]; 30 mmol/L): ++ (++ indicates P < 0.05) | serum levels of Il-10 (FIG. 18) ([5]; 10 mmol/L TPN (Groups A, C, D)): lower than in the standard PN Group P | serum levels of Il-10 (FIG. 18) ([5]; 30 mmol/L TPN (Group B)): lower than in the standard PN Group P | Ileal Cytokine Concentration (more anti-inflammatory cytokines I1-8, I1-10) ([6]; 10 mmol/L): − | Ileal Cytokine Concentration (more anti-inflammatory cytokines I1-8, I1-10) ([6]; 30 mmol/L): + | Pro-inflammatory cytokines ([7]; 10 mmol/L in PN): − | Pro-inflammatory cytokines ([7]; 30 mmol/L in PN): +
